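Method: 48-hour compound exposure of cells in 96-well plates, five concentrations, linear interpolation of endpoints. The concentration for 50% growth inhibition is given as GI50. Definition used: TGI = concentration required for complete inhibition of growth.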
Experiments:
Assay in all cases: NCI anticancer screen, dose series, 48 h
[1] = test system: DU-145 prostate
[2] = test system: HCC-2998 colon
[3] = test system: NCI-H23 lung
[4] = test system: OVCAR-4 ovarian
[5] = test system: PC-3 prostate
[6] = test system: RPMI-8226 leukemia
[7] = test system: SK-MEL-28 melanoma
[8] = test system: SN12C renal
[9] = test system: SNB-19 CNS
[10] = test system: A498 renal

Row | SMILES | TGI [1] | TGI [2] | TGI [3] | TGI [4] | TGI [5] | TGI [6] | TGI [7] | TGI [8] | TGI [9] | GI50 [10] | TGI [10] | GI50 [2] | GI50 [3] | GI50 [4] | GI50 [6] | GI50 [7] | GI50 [8] | GI50 [9] | GI50 [1] | GI50 [5]
1 | COc1ccc(-c2c(C)c(C(=O)O)nc(-c3ccc4c(O)c(OC)c5c(c4n3)=NC(C)(C)N=5)c2N)c(O)c1OC | > 100 µM | 35.7 µM | 6.95 µM | > 100 µM | > 100 µM | 86.6 µM | 59.8 µM | 41.7 µM | 95 µM |  |  |  |  |  |  |  |  |  |  | 
2 | COc1cc(/C=C/c2ccc(C)cc2)cc(OC)c1OC | 13.7 µM |  | 9.16 µM | 44.7 µM | 11.4 µM | 43.7 µM | 17.7 µM | 30.1 µM | 38.2 µM |  |  |  |  |  |  |  |  |  |  | 
3 | CCC[CH2][Sn]([CH2]CCC)([O]C(=O)c1cc(OC)c(OC)cc1OC)[O][Sn]([CH2]CCC)([CH2]CCC)[O]C(=O)c1cc(OC)c(OC)cc1OC |  | 2.41 µM | 1.19 µM | 2.96 µM |  | 0.667 µM | 1.02 µM | 1.72 µM | 1.08 µM | 0.508 µM | 1.76 µM | 1.1 µM | 0.313 µM | 1.33 µM | 0.236 µM | 0.297 µM | 0.532 µM | 0.27 µM |  | 
4 | COc1ccc2c(c1)/C(=C\c1ccncc1)C(=O)N2 | 34.3 µM | > 100 µM | 43.5 µM |  | > 100 µM | 77.1 µM |  | 23.7 µM | 61.1 µM |  |  | 19 µM | 12.3 µM |  | 10.2 µM |  | 10.3 µM | 19.4 µM | 14.2 µM | 25 µM
5 | CC(C)/C=C1\CCC(CN2CCOCC2)C1=O (stereo not given) |  | 36.5 µM | 33.9 µM | 40 µM |  | 4.47 µM | 32.2 µM | 36.5 µM | > 100 µM |  | > 51.3 µM |  |  |  |  |  |  |  |  | 
6 | O=C(O)C(Cc1cnc[nH]1)N1C(=O)c2ccccc2C1=O (stereo not given) | > 100 µM |  | > 100 µM | > 100 µM | > 100 µM | > 100 µM | > 100 µM | > 100 µM | > 100 µM |  | > 100 µM |  |  |  |  |  |  |  |  | 
7 | Cc1cn2c(/C=C3/C(=O)Nc4c3ccc3ccccc43)c(C(F)(F)F)nc2s1 | > 100 µM | > 100 µM | > 100 µM | > 100 µM | > 100 µM |  | > 100 µM | > 100 µM | > 100 µM | 1.7 µM | > 100 µM | 3.23 µM | 2.09 µM | 3.63 µM |  | 2.7 µM | 4.75 µM | 2.97 µM | 1.67 µM | 1.24 µM
8 | COC1C(OC(=O)c2ccc(C)[nH]2)C(O)C(Oc2ccc3c(O)c(NC(=O)c4c[nH]c(C(=O)Nc5c(O)c6ccc(OC7OC(C)(C)C(OC)C(OC(=O)c8ccc(C)[nH]8)C7O)c(C)c6oc5=O)c4C)c(=O)oc3c2C)OC1(C)C (stereo not given) |  | 7.26 µM | 3.84 µM | 6.82 µM |  | 4.83 µM | 2.25 µM | 7.16 µM | 6.1 µM |  | 4.8 µM |  |  |  |  |  |  |  |  | 
9 | O=C(/C=C(\O)C(=O)O)/C=C(\O)c1ccccc1 |  | > 100 µM | > 100 µM | > 100 µM |  | > 100 µM | > 1 µM | > 100 µM | > 100 µM |  | > 100 µM | > 100 µM | > 100 µM | > 1 µM | > 100 µM | > 1 µM | > 1 µM | > 1 µM |  | 
10 | OC1(c2ccccc2)C2CC=CC2C1(c1ccccc1)c1ccccc1 (stereo not given) | > 100 µM | 48.3 µM | > 100 µM |  | > 100 µM | 86.5 µM | > 100 µM | > 100 µM | > 100 µM |  | 57 µM |  |  |  |  |  |  |  |  | 
11 | CO/N=C(\COc1ccc2c(=O)c3ccccc3oc2c1)c1ccccc1 | 61.4 µM |  | > 100 µM | > 100 µM | > 100 µM | > 100 µM | > 100 µM | > 100 µM | > 100 µM | 20.3 µM | 47.7 µM |  | > 100 µM | 84.3 µM | > 100 µM | > 100 µM | 35.1 µM | 54.5 µM | 22.4 µM | 35 µM
12 | O=c1cccccc1[O-].O=c1cccccc1[O-].O=c1cccccc1[O-].[Eu+3] |  | > 100 µM | > 100 µM | > 100 µM |  | > 100 µM | > 100 µM | > 100 µM | > 100 µM | 78.4 µM | > 100 µM |  |  |  |  |  | 56.6 µM |  |  | 
13 | O=S(=O)(NC1CCCCC1)c1ccc2c(c1)OCCOCCOCCOCCO2 | > 100 µM | > 100 µM | > 100 µM |  | > 100 µM | > 100 µM | > 100 µM | > 100 µM | > 100 µM |  | > 100 µM |  |  |  |  |  |  |  |  | 
14 | C=CO/N=[N+](\[O-])N(CC)CC | > 100 µM | > 100 µM | > 100 µM | > 100 µM |  | > 100 µM | > 100 µM | > 100 µM | > 100 µM |  | > 100 µM |  |  |  |  |  |  |  |  | 
15 | Cc1ccc(/C=C(\C#N)c2cc3ccccc3n2C)cc1 | > 100 µM | > 100 µM | > 100 µM |  | > 100 µM | > 100 µM | > 100 µM | > 100 µM | > 100 µM | 0.217 µM | 0.808 µM | 0.484 µM | 0.541 µM |  | 0.38 µM | > 100 µM | 0.614 µM | 0.414 µM | 0.469 µM | 0.403 µM
16 | Cc1cc(N(CCC#N)S(=O)(=O)c2ccccc2)ccc1/C=C1\N=C(c2ccc(Cl)cc2)OC1=O |  | > 100 µM | > 100 µM | > 100 µM |  | > 100 µM | > 100 µM | > 100 µM | > 100 µM |  | > 100 µM |  |  |  |  |  |  |  |  | 
17 | COc1ccc(-c2cc(=O)n(-c3nc4ccccc4[nH]3)[nH]2)cc1OC | > 100 µM | > 100 µM |  | > 100 µM | > 100 µM | 41.3 µM | > 100 µM | > 100 µM | > 100 µM | 2.33 µM | 8.72 µM | 16.1 µM |  | 7.9 µM | 4.61 µM | 13.9 µM | 8.85 µM | 7.06 µM | 17.5 µM | 3.8 µM
18 | CCCn1c2c(c3c(O)cccc31)C(=O)c1ccccc1-2 | > 100 µM | > 100 µM | > 100 µM | 6.12 µM | 36 µM | > 100 µM | 39.1 µM | 98.5 µM | > 100 µM |  |  | 9.72 µM | 11.5 µM | 0.0961 µM | 7.34 µM | 10.4 µM | 21.9 µM | 25.5 µM | 23.4 µM | 12.6 µM
19 | CCO/C=C1\N=C(c2ccc(Cl)c(Cl)c2)OC1=O |  | > 100 µM | > 100 µM | > 100 µM |  | > 100 µM | > 100 µM | > 100 µM | > 100 µM |  | > 100 µM |  |  |  |  |  |  |  |  | 
